Experimental data reported in US20250302816A1, “DISRUPTION OF EPITHELIAL BARRIERS FOR MOLECULAR DELIVERY ENHANCEMENT OR EXTRACTION OF EXTRACELLULAR FLUIDS” (The University of Nottingham, priority 2022, published 2025).

What was measured:
[1] = test system: Calu-3; assay: Further in vitro Transwell studies: enhancing translocation of 4 kDa FITC-dextran; format: cell-based, human
Method: Exemplary molecules (a)-(1) investigated in coarse dose-response by FD4 delivery in Transwell culture (Calu-3). Each molecule was screened at 5 nM, 1 μM, 200 μM levels.
Each compound was screened at 200 μM level.
Each molecule was screened at 5 nM, 1 μM, 200 μM levels.

[2] = test system: human primary lung epithelium; assay: Human primary lung epithelium, air-liquid interface culture: TEER, FD4 and mAb delivery; format: cell-based
[3] = test system: MMP; assay: Fluorogenic MMP activity assay; format: cell-based, human
Method: FIG. 5: High-throughput MMP assay (MMP Activity Assay Kit (Fluorometric-Red), Abcam #ab112147) showing the normalised accumulation slope of FRET-based signal (Ex540: Em590 nm) read at 5 minute intervals for one hour in adherent Calu-3 cells cultured in glass-bottomed 96-well plates using a SpectraMax i3x/Biomek FXPP high-throughput platform. Each experiment was conducted in triplicate (error bars). Signal accumulation over time in each well was linearly fitted and the gradient of each fit was scaled against the gradient of the relevant positive control wells, to which active MMP was added directly (mixed isoforms, […]), to obtain the normalised accumulation slope.
To investigate the involvement of MMP in the disruption of tight junctions observed in the presence of 200 μM 3OC12-HSL and C7 PQS, a fluorogenic MMP activity assay was performed, using the Amplite™ Universal Fluorimetric MMP Activity Assay Kit. This kit is designed to check the general activity of a MMP enzyme.
Following treatment with 3OC12-HSL and C7 PQS respectively, the conditioned media were collected every hour from apical chamber and MMP activity was determined by using Amplite™ Universal Fluorimetric MMP Activity Assay Kit Green Fluorescence according to the manufacturer's instructions.
A fluorogenic MMP activity assay was carried out in the same manner on further agents.

[4] = test system: Calu-3 cell layers; assay: FD4 permeability and TEER of polarised Calu-3 cell layers; format: cell-based, human
[5] = test system: Calu-3 cells; assay: MTS assay of metabolic activity / cell viability; format: cell-based, human; conditions: 5 nM to 200 μM, 6 hours
Method: To assess 3OC12-HSL and C7 PQS molecules cytotoxicity on cell viability of Calu-3 cell layers and to monitor short-term cytotoxicity during experiments, Calu-3 cells were treated with 3OC12-HSL and C7 PQS, at concentrations 5 nM, 1 μM, 50 μM, 100 μM and 200 μM, for 6 hours. At the end of the treatment, cell viability (through measuring metabolic activity) of cultures was determined by chromogenic MTS assay.
The viability of Calu-3 cells was determined by a chromogenic MTS method based on the measuring of mitochondrial respiration, assessed by the reduction of 3-(4,5-dimethylthiazol-2-yl)-5-(3-carboxymethoxyphenyl)-2-(4-sulfophenyl)-2H-tetrazolium to formazan. Calu-3 cells were cultured in a 96-well plate (CellTiter 96® Aqueous, Promega) at a density of 10^4 cells per well and incubated at 37° C., 5% CO2 for 24 hours. After 24 hours, the medium was replaced with 100 μl of test compounds dissolved in HBSS and then cells were incubated for 6 hours. HBSS and Triton X-100 (0.1% v/v in HBSS) were used as the negative and positive controls respectively. Bathing solutions were then aspirated and cells washed with PBS. Then culture medium (100 μl at 37° C.) plus MTS reagent (20 μl) were added into each well and cells were incubated for 2 hours. Absorbance at 492 was measured using a Dynex absorbance microplate reader (Dynex Technologies, USA) and converted into a percentage metabolic rate.

[6] = test system: ZO-1; assay: ZO-1 immunostaining and confocal microscopy of Calu-3 cell layers; format: cell-based, human; conditions: 200 μM, one hour, vs vehicle 0.15% DMSO
Method: To visualise the effect of 3OC12-HSL and C7 PQS on tight junction integrity in Calu-3 cell layers, ZO-1, immunostaining and confocal microscopy was performed on cell layers treated by 200 μM 3OC12-HSL and C7 PQS and control (0.15% DMSO in HBSS) for one hour. Confluent cell monolayers were washed with PBS and fixed in 4% paraformaldehyde in PBS for approximately 10 min at room temperature. Cells were then washed 3 times with PBS and permeabilised by incubating with Triton X-100 (0.1% v/v in PBS) for 10 min. Cells were then washed with PBS, followed by the application of 1% BSA/PBS for approximately 1 hour. Thereafter, BSA/PBS solution was aspirated and replaced with mouse, anti-human ZO-1 (primary) antibody, diluted in 1% BSA/PBS to a final concentration of 100 μg/ml. Cell samples were incubated with the primary antibody for 2 hours. The primary antibody solution was then removed and cells washed with PBS (5 times). FITC-labelled goat, anti-mouse (secondary) antibody, diluted according to manufacturer's instructions in 1% BSA/PBS was then applied to the cells for 1 hour. The secondary antibody solution was then aspirated and cells washed with PBS three times. […]

[7] = test system: ARPE-19 cell layers; assay: Transwell drug transport across ARPE-19 cell layers with or without 3OC12-HSL; format: cell-based, human; conditions: doxorubicin 250 μg/ml apical, after 5 hours
Method: FIG. 1: Macromolecular therapeutics transported across ARPE-19 cell layers in the absence and presence of 3OC12-HSL transported into the basolateral chamber over a period of five hours. Permeability experiments were initiated by applying 0.5 ml of the test solutions (250 μg/ml Aflibercept/Bevacizumab/or Doxorubicin diluted in HBSS/HEPES) to the apical side of the cells (donor compartment of the Transwell) with or without 3OC12-HSL (200 μM). Drug permeability was determined by sampling the basolateral solution at regular time intervals. Data points are expressed as means±SEM, derived from three replicates in triplicate. p values of <0.05 were considered statistically significant. *, ** and *** denote p<0.05, p<0.01 and p<0.001, respectively.
Calu-3 cells obtained from American Type Culture Collection, USA were cultured using Dulbecco's Modified Eagle Medium (DMEM) supplemented with penicillin (100 U/mL), streptomycin (0.1 mg/mL), amphotericin (0.25 μg/mL), non-essential amino acids (NEM, 1%) and Fetal Bovine Serum (FBS, 10% v/v, Sigma-Aldrich, UK). The human-derived RPE cell line ARPE-19 was obtained from American Type Culture Collection. Cells were grown in Dulbecco's Modified Eagle Medium: F12 (1:1; Gibco, Invitrogen, Carlsbad, CA), including 10% inactivated fetal bovine serum, 100 units/mL penicillin, 100 μg/mL streptomycin, and 2 mM L-glutamine (Sigma-Aldrich). Caco-2 cells were grown in complete culture medium (DMEM supplemented with 17% FBS and 1% antibiotic-antimycotic solution). All cells were kept in a water-jacketed incubator (model 3546, Forma Scientific, Inc., Marietta, OH, USA) maintained at 37° C. and an atmosphere of humidified air with 5% CO2. Medium was replaced every other day until cells reached the 80-90% confluence desired for re-plating or culturing mature, polarised barrier models.
When confluent, cells were seeded on Transwell® filters (12 mm diameter, 0.4 μm pore size; Corning Life Sciences, Holland) at 10^5 cells/cm^2. […]
Three polarised epithelial in-vitro tissue models, including lung epithelium (Calu-3), retinal pigment epithelium (ARPE-19) and intestinal epithelial (Caco-2) were used to study the efficiency of 200 μM 3OC12-HSL as a paracellular permeability enhancer for three different drugs: bevacizumab, aflibercept and doxorubicin (applied concentrations 250 μg/mL). The amount of drugs transported was determined via the conversion of fluorescence intensity to amount (μg or ng), using calibration curves constructed via serial standard dilutions. […]
Permeability experiments were initiated by applying 0.5 mL of the test solutions to the apical side of the cells (donor compartment of the Transwell®). […] Drug permeability was determined by sampling the basolateral solution at regular time intervals. […]

[8] = test system: ex-vivo rat eyes
Method: In order to investigate the efficacy of 3OC12-HSL as drug delivery enhancer in intact tissue, bevacizumab (250 μg/mL: […]) and aflibercept (40 mg/mL: 348 μM) were applied with and without 3OC12-HSL to ex-vivo rat eyes, and the distribution of drugs was visualised within sagittal ocular cryosections by confocal microscopy. A further set of experiments tested efficacy of 3OC12-HSL via ex vivo porcine skin.
Six hooded rats with pigmented eyes, weighing 280-300 g and aged 7-8 weeks were provided by Bio-Support Unit at the Queen's Medical Centre, Nottingham. Experiments were designed to be performed ex-vivo, immediately post-sacrifice, during experiments supporting other studies. Tested therapies (bevacizumab (250 μg/mL), aflibercept (250 μg/mL) with/without 3OC12-HSL (200 μM) were immediately applied post-sacrifice in (50 μL) to the corneal surface of each animal for a period of 1 hour, before being washed off using ice-cold PBS. The eyeballs were enucleated, immersed in OCT, and flash-frozen in isopentane cooled by liquid N2 before being stored at −80° C. for further processing.
OCT-embedded eyes were cut into 15 μm tissue sections using a cryostat (Leica 3050) and mounted on gelatin-coated slides, at cutting temperatures between −15 and −23° C. […]

| Molecule | Effective in enhancing translocation [1] | further results |
| --- | --- | --- |
| CCCCCCCCCc1[nH]c2ccccc2c(=O)c1CN(C)C [3-C1NMe2 C9 PQS] | No |  |
| CCCCCC/C=C/Cc1[nH]c2ccccc2c(=O)c1C [3-Me C9: 2. Quinolone] | No |  |
| CCCCCC/C=C\CCCC(=O)N[C@H]1CCOC1=O [5-cis-C12 HSL] | No |  |
| CCCCCCCc1[nH]c2cc(F)ccc2c(=O)c1O [7F-C7 PQS] |  | TEER (electrical resistance) upon agent exposure [2]: temporarily reduced; mAb (Mepolizumab) delivery upon agent exposure [2]: increased |
| CC(C)CCCCCCc1[nH]c2ccccc2c(=O)c1O [7Me-C8-PQS] | Yes |  |
| Cc1[nH]c2ccccc2c(=O)c1O [C1 PQS (Me PQS)] | Yes |  |
| CCCC(=O)NC1CCOC1=O (stereo not drawn) [C4 HSL (BHL), N-butyl-homoserine-lactone] |  | MMP activation (further MMP screening) ([3]; assay carried out in the same manner on further agents): cause MMP activation |
| CCCCCCCc1cc(O)c2ccccc2[n+]1[O-] [C7 HNQ N-oxide] | Yes |  |
| CCCCCCCc1[nH]c2ccccc2c(=O)c1O [C7 PQS, 2-n-heptyl-3-hydroxy-4 (1H)-quinolone] | Yes | paracellular passage / flux of FD4 from apical to basolateral chamber ([4]; 200 μM (3OC12-HSL: 200 μM or 1 μM)): increased the flux of FD4; TEER after 7 hours ([4]; 200 μM, recovery, SEM+/−20): 510 Ωcm^−2; time after which TEER started increasing / cell layer integrity began to recover ([4]; during exposure): 5 h; cytotoxic effect on cell viability within epithelial layers [5]: do not have an adverse cytotoxic effect; ZO-1 distribution at tight junctions [6]: considerable dislocation of ZO-1 proteins; MMP activation in apical samples taken at one-hour intervals ([3]; 200 μM, p<0.01, no fluorescence in control samples): significant MMP activation; period over which MMP activation increased before starting to reduce ([3]; samples taken hourly from apical chamber): 4 h |
| CCCCCCCCCc1[nH]c2ccccc2c(=O)c1O [C9 PQS] | Yes |  |
| CCCCCCCCCCCc1[nH]c2ccccc2c(=O)c1O [C11 PQS] | Yes |  |
| CCCCCCC/C=C\C(=O)O [Cis-2-decenoic acid, cis-2-decenoic acid] | Yes |  |
| COc1cccc2c1C(=O)c1c(O)c3c(c(O)c1C2=O)C[C@@](O)(C(=O)CO)C[C@@H]3O[C@H]1C[C@H](N)[C@H](O)[C@H](C)O1 [Doxorubicin, reference compound] |  | amount of drug transported into the basolateral chamber ([7]; with 3OC12-HSL (200 μM)): 62.33 µg; amount of drug transported into the basolateral chamber ([7]; without 3OC12-HSL): 9.85 µg |
| CCCCCCCc1cc(O)c2ccccc2n1 [HHQ] | Yes |  |
| CCCCCCCCCC1=Nc2ccccc2C(=O)C1 [HNQ] | Yes |  |
| CCCCC(=O)CC(=O)NC1CCOC1=O (stereo not drawn) [OC7-HSL] | Yes |  |
| CCCCCCCCCC(=O)CC(=O)Nc1nccs1 [OdDAT] |  | TEER (electrical resistance) upon agent exposure [2]: temporarily reduced; mAb (Mepolizumab) delivery upon agent exposure [2]: increased |
| CCCCCNC(=O)c1[nH]c2ccccc2c(=O)c1O [PQS-C5-Amide] | No |  |
| CCCCCCCCCCCc1cc(=O)c2ccccc2[nH]1 [UHQ] | Yes |  |
| Aflibercept: recombinant fusion protein of VEGF-binding portions of human VEGF receptors 1 and 2 and Fc of human IgG1 |  | fluorescence in eye sections (CLSM) [8]: No fluorescence was detected |
